A short description of data set [1]: Quantitative 1H NMR spectroscopy (higher order self-association). The format is physicochemical. Conditions: D2O:EtOH 19:1, 2.78 mM, 298 K; proportion of compound to become NMR silent.
The conditions of data set [2]: cited from earlier work; for CAC / CAC (mM) / ST at CAC (mN m^−1): H2O:EtOH 19:1, approx. 291 K; for CAC / CAC (mM): surface tension measurements; for ST at CAC (mN/M): Table S1, same datum as Table 1.
The nature of data set [3]: Calcein loaded vesicle leakage (lysis) assay. Conditions: 298 K, PBS buffer 5% EtOH. Here is the method:
To gauge the activity and selectivity of 1–5 and a–j against microbial membranes, a series of synthetic model vesicle systems were prepared, containing a variety of common bacterial membrane phospholipid headgroups: (i) phosphatidylglycerol (PG) only; (ii) phosphatidylethanolamine (PE) : PG 3 : 1 and; (iii) PE : PG 1 : 1.[50] Following our previous work in this area, we first quantified the ability of 1–5 and co-formulations a–j to lyse the aforementioned synthetic model phospholipid vesicle systems.[49] […] Here the fluorescent dye calcein was loaded into synthetic vesicles at a concentration where the dye self-quenches (70 mM). When the vesicle is lysed, the calcein is released to the extravesicular solution, effectively reducing calcein concentration to a point where the dye no longer undergoes self-quenching. Through comparison to a positive control experiment, in which 100% vesicle lysis was achieved through the addition of 2% X-100 Triton, the proportion of vesicles to undergo lysis in the presence or absence of SSA can be calculated. The data was then fitted to the Hill or linear equation to determine the effective concentration of SSA needed to lyse 50% of the vesicles present in solution (EC50) (Section S14, ESI ^†).[51] […]
Preparation of vesicles: All lipids were purchased as powder stocks from Avanti Polar Lipids. Lipid vesicles were prepared according to standard procedures. Each phospholipid (~ 20 mg) was dissolved in chloroform: methanol 3:1 (~ 10 mL) and the solvent was removed under reduced pressure. The thin film of dried lipid was further dried in vacuo overnight. Lipid films were resuspended in the desired buffer and subjected to 10 freeze-thaw cycles in liquid nitrogen and extruded 19 times through a 200 nm polycarbonate membrane.
Preparation of calcein loaded vesicles:2 Lipid films were resuspended in calcein dye (70 mg calcein, 865 µL deionized H2O, 135 µL NaOH (2 M), with NaOH added dropwise until calcein dissolved) and subjected to 10 freeze-thaw cycles in liquid nitrogen and extruded 19 times through a 200 nm polycarbonate membrane. The suspension was run down a size exclusion column packed with sephadex G-50 using 1 X PBS. The hydrodynamic dimeter of the lipids was monitored using an Anton Paar LitesizerTM 500 to ensure the separation of free and entrapped calcein. Phospholipid concentration was adjusted to 60 µM for vesicle leakage experiments.
Vesicle leakage assay: Black bottom 96-well plates were prepared by serially diluting desired SSA in a EtOH: H2O 1:19 solution across the plate, the appropriate lipid solution (100 µL, 60 µM) was added to each well to give a total well volume of 200 µL. A solution of 2 % Triton X-100 was used for a 100 % lysis control and a EtOH: H2O 1:19 solution was used as a 0 % lysis control. Fluorescent measurements were taken at 25 °C using an excitation value of 495 nm and an optimised gain of 800. Data were acquired in endpoint mode. […]
For fluorescent labelling, the desired vesicles were pre-incubated with DPH (10 µM) at 60 °C for 1 hour.
Membrane fluidity assay: Black bottom 96-well plates were prepared by serially diluting desired SSA in a EtOH: H2O 1:19 solution across the plate, the appropriate DPH labelled vesicles (100 µL, 60 µM) were added to each well to give a total well volume of 200 µL. FP measurements were taken at 25 °C using a 355 nm filter for excitation and a 430 m for emission. […]
Figure S168 – Average (n=3) […] readings of calcein loaded PE:PG 3:1 lipid vesicles (λem = 515 nm) following the addition of j at varying concentrations. Lysis value is triton (1 %). Blue = 1 minute, purple = 5 minutes, pink = 10 minutes, orange = 15 minutes, red = 20 minutes. Error = standard […]
Section S14: Determination of vesicle lysis EC50 values
Data was originally fitted to the Hill equation using origin software. If the fitting of these vesicle lysis data to the Hill equation failed then the data were fitted to a linear line of best fit to estimate EC50 […]
above 0.1 mM. […]

For data set [4], the system named is polymicrobial biofilms of C. albicans (SC5314) and P. aeruginosa (PAO1). On the set-up: method as in PMID 38222503. Conditions: 0.16 mM, XTT assay, Fig. 8(c); cited from earlier work. (Tetrazolium assays rely on reduction of a dye to a coloured formazan, in cell work by metabolically active cells.)
Data set [5] is described as follows: Tensiometry: critical aggregation concentration and surface tension. The format is physicochemical. The conditions noted are these: H2O:EtOH 19:1, approx. 291 K; for CAC (mM) / CAC: surface tension measurements, bounds represent the limit of solubility; for Surface tension at limit of solubility: footnote c, CAC not reached.
Where [6] appears, read: PE:PG 1:1 vesicles, 1 min (Timepoint 1 in Table S14).
Where [7] appears, read: PE:PG 1:1 vesicles, 5 min (Timepoint 2 in Table S14).
Where [8] appears, read: PE:PG 1:1 vesicles, 10 min (Timepoint 3 in Table S14).
Setting [9] is: PE:PG 1:1 vesicles, 15 min (Timepoint 4 in Table S14).
Setting [10] is: PE:PG 1:1 vesicles, 20 min (Timepoint 5 in Table S14).
The mark [11] stands for this setting: PE:PG 3:1 vesicles, 1 min (Timepoint 1 in Table S13).
[12] abbreviates: PE:PG 3:1 vesicles, 5 min (Timepoint 2 in Table S13).
[13] abbreviates: PE:PG 3:1 vesicles, 10 min (Timepoint 3 in Table S13).
Where [14] appears, read: PE:PG 3:1 vesicles, 15 min (Timepoint 4 in Table S13).
Setting [15] is: PE:PG 3:1 vesicles, 20 min (Timepoint 5 in Table S13).
[16] abbreviates: PG vesicles, 1 min (Timepoint 1 in Table S12), total molar concentration.
Where [17] appears, read: PG vesicles, 5 min (Timepoint 2 in Table S12).
Setting [18] is: PG vesicles, 10 min (Timepoint 3 in Table S12).
[19] abbreviates: PG vesicles, 15 min (Timepoint 4 in Table S12).
The mark [20] stands for this setting: PG vesicles, 20 min (Timepoint 5 in Table S12).

Values joined by “and” are separate entries in the source; they are usually repeats but may differ in a detail not shown here. Equal entries are not always repeated. Where two headings read alike, the source gives them in different places. Marks after values point to notes of the source that are not given here. Where only a bound is given, the exact number is not on record here.

As usually defined, the EC50 is the concentration at which the effect is half-maximal.

`O=S(=O)(O)CCCNC(=S)Nc1ccc(C(F)(F)F)cc1` [SSA 1]: the “Quantitative 1H NMR (%) Anion” value in data set [1] came to 33%. The “Quantitative 1H NMR (%) Cation” value in data set [1] turned out to be 31%. In data set [2], the “CAC” value is recorded as 5.61 mM. Further, the “CAC (mM)” value in data set [2] is 5.6[43] mM. Moreover, the “ST at CAC (mN m^−1)” value in data set [2] is 34[43] mN m^−1. For the same compound, in data set [2], the “ST at CAC (mN/M)” value was 33.59 mN/M. Also, the EC50 in data set [3] (setting [6]) is 0.055 mM and 0.0549 mM; in data set [3] (setting [7]), 0.01 mM and 0.0095 mM; in data set [3] (setting [8]), 0.0048 mM; in data set [3] (setting [9]) it was 0.002 mM; in data set [3] (setting [10]), 0.002 mM and 0.0015 mM; in data set [3] (setting [11]), 0.0302 mM. Moreover, the EC50 is 0.009 mM in data set [3] (setting [12]); 0.004 mM in data set [3] (setting [13]); 0.002 mM and 0.0022 mM in data set [3] (setting [14]); 0.002 mM and 0.0017 mM in data set [3] (setting [15]); 0.0677 mM in data set [3] (setting [16]); 0.032 mM in data set [3] (setting [17]). The EC50 in data set [3] (setting [18]) was 0.0156 mM; in data set [3] (setting [19]), 0.0062 mM; in data set [3] (setting [20]), 0.0037 mM. Besides, the antibiofilm activity in data set [4] was 60–80%.

For `O=C(O)CNC(=S)Nc1ccc(C(F)(F)F)cc1` [SSA 2], the “Quantitative 1H NMR (%) Anion” value in data set [1] amounted to 43%. Also, the “Quantitative 1H NMR (%) Cation” value in data set [1] came to 39%. Also, the EC50 in data set [3] (setting [6]) was greater than 1.5 mM; in data set [3] (setting [7]), 1.43 mM; in data set [3] (setting [8]), 0.83 mM; in data set [3] (setting [9]), 0.661 mM; in data set [3] (setting [10]), 0.585 mM; in data set [3] (setting [11]), greater than 1.5 mM. Besides, the EC50 in data set [3] (setting [12]) was greater than 1.5 mM; in data set [3] (setting [13]) it was greater than 1.5 mM; in data set [3] (setting [14]) it was greater than 1.5 mM; in data set [3] (setting [15]), 1.15 mM; in data set [3] (setting [16]), greater than 1.5 mM; in data set [3] (setting [17]), 1.14 mM. The results for the EC50 in data set [3] (setting [18]), in data set [3] (setting [19]) and in data set [3] (setting [20]) were 0.727 mM, 0.563 mM and 0.49 mM, respectively. Besides, the antibiofilm activity in data set [4] is recorded as 60–80%. The “CAC (mM)” value in data set [5] is recorded as >10.0 ^b mM. The “Surface tension at limit of solubility” value in data set [5] is 41 ^c mN m^−1.

Turning to `Cc1ccc2nc(-c3ccc(NC(=O)NCS(=O)(=O)O)cc3)sc2c1` [SSA 3], the “Quantitative 1H NMR (%) Anion” value in data set [1] is on record as 37%. Further, in data set [1], the “Quantitative 1H NMR (%) Cation” value is 37%. The “CAC” value in data set [2] is 0.5 mM. In data set [2], the “CAC (mM)” value was 0.5[42] mM. Further, the “ST at CAC (mN m^−1)” value in data set [2] was 47[42] mN m^−1. In addition, the “ST at CAC (mN/M)” value in data set [2] is 46.5 mN/M. Besides, the EC50 was greater than 1.5 mM in data set [3] (setting [6]); greater than 1.5 mM in data set [3] (setting [7]); 1.33 mM in data set [3] (setting [8]); 0.953 mM in data set [3] (setting [9]); 0.829 mM in data set [3] (setting [10]); greater than 1.5 mM in data set [3] (setting [11]). In addition, the EC50 in data set [3] (setting [12]) is greater than 1.5 mM; in data set [3] (setting [13]), greater than 1.5 mM; in data set [3] (setting [14]) it was greater than 1.5 mM; in data set [3] (setting [15]), greater than 1.5 mM; in data set [3] (setting [16]) it was 0.867 mM; in data set [3] (setting [17]), 0.615 mM. The EC50 in data set [3] (setting [18]) was 0.529 mM; in data set [3] (setting [19]) it was 0.15 mM; in data set [3] (setting [20]), 0.17 mM.

As to `O=c1c(NCCCS(=O)(=O)O)c(Nc2ccc(C(F)(F)F)cc2)c1=O` [SSA 4], the “Quantitative 1H NMR (%) Anion” value in data set [1] came to 44%. In addition, the “Quantitative 1H NMR (%) Cation” value in data set [1] worked out at 39%. In addition, the EC50 in data set [3] (setting [6]) was greater than 1.5 mM; in data set [3] (setting [7]), greater than 1.5 mM; in data set [3] (setting [8]) it was 0.948 mM; in data set [3] (setting [9]), 0.675 mM; in data set [3] (setting [10]), 0.574 mM; in data set [3] (setting [11]), greater than 1.5 mM. The half-maximal effective concentration (EC50) in data set [3] (setting [12]) is greater than 1.5 mM; in data set [3] (setting [13]) it was 1.18 mM; in data set [3] (setting [14]) it was 0.95 mM; in data set [3] (setting [15]) it was 0.91 mM; in data set [3] (setting [16]), 1.02 mM; in data set [3] (setting [17]) it was 0.396 mM. The half-maximal effective concentration (EC50) in data set [3] (setting [18]) was 0.341 mM; in data set [3] (setting [19]), 0.288 mM; in data set [3] (setting [20]), 0.218 mM. Also, the “CAC” value in data set [5] is less than 7.5 mM. Besides, in data set [5], the “CAC (mM)” value was >7.5 ^b mM. The “Surface tension at limit of solubility” value in data set [5] is 42 ^c mN m^−1.

Consider `O=C(O)CNc1c(Nc2ccc(C(F)(F)F)cc2)c(=O)c1=O` [SSA 5], for which the “Quantitative 1H NMR (%) Anion” value in data set [1] was determined as 33%. Also, in data set [1], the “Quantitative 1H NMR (%) Cation” value is listed as 37%. Moreover, the EC50 is greater than 1.5 mM in data set [3] (setting [6]); 0.302 mM in data set [3] (setting [7]); 0.129 mM in data set [3] (setting [8]); 0.1 mM in data set [3] (setting [9]); 0.234 mM in data set [3] (setting [10]); greater than 1.5 mM in data set [3] (setting [11]). In addition, the EC50 is greater than 1.5 mM in data set [3] (setting [12]); 0.683 mM in data set [3] (setting [13]); 0.54 mM in data set [3] (setting [14]); 0.429 mM in data set [3] (setting [15]); greater than 1.5 mM in data set [3] (setting [16]); 0.641 mM in data set [3] (setting [17]). The values for the EC50 in data set [3] (setting [18]), in data set [3] (setting [19]) and in data set [3] (setting [20]) were 0.13 mM, 0.088 mM and 0.061 mM, respectively. Also, the “CAC” value in data set [5] is on record as less than 2.78 mM. Besides, in data set [5], the “CAC (mM)” value is given as >2.8 ^b mM. Further, in data set [5], the “Surface tension at limit of solubility” value is given as 43 ^c mN m^−1.

Values taken from publication PMC12169104, “Towards the development of supramolecular self-associating amphiphiles as antibiofilm agents against Pseudomonas aeruginosa and Candida albicans biofilms” (Journal of Materials Chemistry. B, 2025).
